# In patent publication US20100168216A1, “PROSTAGLANDIN PHARMACEUTICAL COMPOSITIONS” (CTG PHARMA S.R.L., priority 2007, published 2010):
# Legend:
# Thy-1 mRNA = assay: Studies on rat retina: NMDA-induced loss of Thy-1 mRNA (neuroprotection); format: in vivo, Wistar rats; conditions: Thy-1 mRNA levels (relative to rhodopsin), PEG value taken as 100; topical 5 μl of 2% in 50% PEG bilaterally twice a day, 2 days before and 7 days after intravitreal NMDA
# Description: The method described by Osborne N. N. et al. (2002) previously reported was used. Briefly, two groups of 16 Wistar rats (200-250 g) received either 5 μl doses of topical test compound (2% in 50% polyethylene glycol-PEG) or 5 μl of vehicle bilaterally twice a day for 2 days. On the third day N-methyl-D-aspartate (NMDA) (5 μl in sterile water) was injected intra-vitreally into a single eye of each animal. The other eye was injected with sterile water. The animals were treated then with test compound or vehicle for 7 days. The Thy-1 antigen is associated with ganglion cells and intraocular injections of NMDA cause a loss of Thy-1 mRNA. The rats were then killed and the retinas removed for mRNA analysis for Thy-1 antigen. Results are expressed as % value to the Thy-1 mRNA levels (relative to rhodopsin) of the treated groups, taking PEG value as 100.
# [1] = test system: IOP (Intraocular Pressure); assay: Studies of IOP (intraocular pressure) on rabbit; format: in vivo, New Zealand albino rabbits; conditions: IOP mmHg as % of PEG value (100); topical application of 2% test compound, measured 60 minutes after
# Description: The method by Osborne N. N. et al. (2002) previously reported was used. Briefly, two groups of adult male New Zealand albino rabbits weighing 3-3.5 kg were used in the experiments. IOP was measured using a properly calibrated tonometer immediately after topical application of 1 drop of 0.4% benoxinate hydrochloride. The animals received a topical application of 2% of test compound or PEG and measures taken 60 minutes after. Results are expressed as % value to the IOP mmHg values of the treatment groups, taking PEG value as 100.
smiles,measurement,setting,value
"O=C(CCCC=CC[C@@H]1[C@@H](CC[C@@H](O)CCc2ccccc2)[C@H](O)C[C@@H]1O)Oc1ccc(-c2cc(=S)ss2)cc1 (stereo in doubt) [Compound Example 2, (5Z)-7-[(1R,2R,3R,5S)-3,5-dihydroxy-2-[(3R)-3-hydroxy-5-phenylpentyl]cyclopentyl]-5-heptenoic acid 4-(3H-1,2-dithiole-3-thione-5-yl)-phenyl ester]",NMDA effects (%),Thy-1 mRNA,52%
same,IOP values (%),[1],85%
